Laboratory results as given in patent US10730868B2, “Bicyclic heteroaryl substituted compounds” (BRISTOL-MYERS SQUIBB COMPANY, priority 2016, dated 2020).

Each molecule was assayed against PAR4 (Homo sapiens (Human), UniProt Q96RI0) (assay: PAR4 FLIPR assay (antagonism of agonist-peptide-induced calcium mobilization)). Settings: H-Ala-Phe(4-F)-[…]NH2-induced intracellular calcium mobilization, PAR4-expressing HEK293 cells; read-out: PAR4 FLTPR assay (IC50).
Format: cell-based
From the text: The Fluorometric Imaging Plate Reader (FLIPR) assay is an exemplary in vitro assay for measuring the activity of the PAR4 antagonists of the present invention. In this assay, intracellular calcium mobilization is induced in PAR4 expressing cells by a PAR4 agonist and calcium mobilization is monitored.
HEK293 cells stably expressing PAR4 were generated by a standard method of transfection of human PAR4 (F2R23) cDNA expression vector and selected based on PAR4 protein expression or mRNA expression. […] These cells also express endogenous PAR1 and can elicit calcium signal upon stimulation with PAR1 agonist peptide. Therefore, the same cells were also used to determine selectivity against PAR1 and agonist activity for both receptors. Cells from HEK293 PAR4 Clone 1.2A (BMS Arctic ID 383940) were propagated and used for calcium mobilization studies.
FLIPR-based calcium mobilization assay in HEK293 cells was used to measure PAR4 antagonism agonism, and selectivity against PAR1. The activity of the PAR4 antagonists of the present invention were tested in PAR4 expressing cells by monitoring H-Ala-Phe(4-F)-[…]NH2-induced intracellular calcium mobilization. Counter screens for agonist activity and PAR1 antagonist activity were also performed. Briefly, PAR/PAR4-expressing HEK293 cells were grown in DMEM (Life Technology, Grand Island, N.Y.) containing 10% heat-inactivated FBS, 1% Penicillin-Streptomycin, 10 μg/mL blasticidin, and 100 μg/mL Zeocin at 37° C. with 5% CO2. Cells were plated overnight prior to the experiment in a black 384-well Purecoat Amine clear bottom plate (Becton Dickinson Biosciences, San Jose, Calif.) at 10,000 cells/well in 30 μL growth medium and incubated in a humidified chamber at 37° C. with 5% CO2 overnight. Prior to compound addition, the cell medium was replaced with 40 μL of 1× calcium and magnesium-containing Hank's Balanced Saline Solution (HBSS) (with 20 mM HEPES) and 1:1000 diluted fluorescent calcium indicator (Codex Biosolutions, Gaithersburg, Md.). After a 30 minute incubation period at 37° C. and a further 30 minute incubation and equilibration period at room temperature, 20 μL test compound (diluted in 1×HBSS buffer) was added at various concentrations at 0.17% dimethyl sulfoxide (DMSO) final concentration. Changes in fluorescence intensity were measured using a Functional Drug Screening System (FDSS, Hamamatsu, Japan) to determine agonist activities. The cells were then incubated for 30 minutes at room temperature followed by addition of 20 μL of agonist peptide for antagonist activity measurement. […] Compound potency was derived from 11-point concentration-response curves.

Chain of PAR4 (Q96RI0 18-385): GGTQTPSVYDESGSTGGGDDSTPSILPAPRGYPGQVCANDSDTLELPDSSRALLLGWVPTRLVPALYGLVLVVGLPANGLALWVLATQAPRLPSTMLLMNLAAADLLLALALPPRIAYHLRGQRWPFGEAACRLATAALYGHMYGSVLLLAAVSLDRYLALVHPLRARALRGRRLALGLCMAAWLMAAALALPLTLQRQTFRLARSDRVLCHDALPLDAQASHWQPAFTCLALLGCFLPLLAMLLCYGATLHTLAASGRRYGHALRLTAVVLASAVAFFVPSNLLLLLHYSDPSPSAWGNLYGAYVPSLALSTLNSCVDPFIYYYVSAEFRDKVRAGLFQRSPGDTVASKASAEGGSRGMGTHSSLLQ

Compound	IC50
COc1cnc2c(-c3nc4cc(F)c(OC5CC(F)(F)CC[C@@H]5OC(=O)Nc5cnc(C)nc5)cc4s3)cc(C)cc2n1 (mixture of isomers) [Example 7]	0.67 nM
COc1cnc2c(-c3nc4cc(F)c(OC5CC(F)(F)CC[C@@H]5OC(=O)Nc5cnc(OC)nc5)cc4s3)cc(C)cc2n1 (mixture of isomers) [Example 11]	2.8 nM
COc1cnc2c(-c3nc4cc(F)c(OC5CC(F)(F)CC[C@@H]5OC(=O)Nc5cncc(C#N)c5)cc4s3)cc(C)cc2n1 (mixture of isomers) [Example 12]	5.7 nM
COc1ccc(NC(=O)O[C@H]2CCC(F)(F)CC2Oc2cc3sc(-c4cc(C)cc5nc(OC)cnc45)nc3cc2F)cn1 (mixture of isomers) [Example 14]	2.4 nM
COc1cnc2c(-c3nc4cc(F)c(OC5CCC[C@@H]5O)cc4s3)cc(C)cc2n1 (mixture of isomers) [Example 21, rac-cis-2-((5-fluoro-2-(2-methoxy-7-methylquinoxalin-5-yl)benzo[c]thiazol-6-yl)oxy)cyclopentanol]	470 nM
COc1ccc(NC(=O)O[C@@H]2CCC[C@H]2Oc2cc3sc(-c4cc(C)cc5nc(OC)cnc45)nc3cc2F)cn1 (racemic) [Example 28]	96 nM
COc1ccc(NC(=O)O[C@@H]2CCC[C@@H]2Oc2cc3sc(-c4cc(C)cc5nc(OC)cnc45)nc3cc2F)cn1 (racemic) [Example 33]	3.1 nM
COc1cnc2c(-c3nc4cc(F)c(O[C@H]5CCC[C@H]5OC(=O)Nc5cnc(C)nc5)cc4s3)cc(C)cc2n1 (racemic) [Example 35]	2.5 nM
COc1cnc2c(-c3nc4cc(F)c(O[C@H]5CCC[C@H]5OC(=O)Nc5cccnc5)cc4s3)cc(C)cc2n1 (racemic) [Example 38]	9.4 nM
COc1cnc2c(-c3nc4cc(F)c(O[C@@H]5CCC[C@@H]5OC)cc4s3)cc(C)cc2n1 (racemic) [Example 40, rac-5-fluoro-2-(2-methoxy-7-methylquinoxalin-5-yl)-6-((cis-2-methoxycyclopentyl)oxy)benzo[d]thiazole]	83 nM
COc1cnc2c(-c3nc4cc(F)c(O[C@@H]5CCC[C@H]5O)cc4s3)cc(C)cc2n1 (racemic) [Example 41, rac-trans-2-((5-fluoro-2-(2-methoxy-7-methylquinoxalin-5-yl)benzo[d]thiazol-6-yl)oxy)cyclopentanol]	180 nM
COc1cnc2c(-c3nc4cc(F)c(O[C@@H]5CCC[C@H]5OC)cc4s3)cc(C)cc2n1 (racemic) [Example 42, rac-5-fluoro-2-(2-methoxy-7-methylquinoxalin-5-yl)-6-((trans-2-methoxycyclopentyl)oxy)benzo[d]thiazole]	320 nM
COc1cnc2c(-c3nc4cc(F)c(O[C@@H]5CCC[C@H]5O)cc4s3)cc(CO)cc2n1 (racemic) [Example 43, rac-trans-2-((5-fluoro-2-(7-(hydroxymethyl)-2-methoxyquinoxalin-5-yl)benzo[d]thiazol-6-yl)oxy)cyclopentanol]	22 nM
COc1cnc2c(-c3nc4cc(F)c(O[C@@H]5CCC[C@@H]5OC(=O)Nc5cccnc5)cc4s3)cc(CO)cc2n1 (racemic) [Example 44, rac-cis-2-((5-fluoro-2-(7-(hydroxymethyl)-2-methoxyquinoxalin-5-yl)benzo[d]thiazol-6-yl)oxy)cyclopentyl pyridin-3-ylcarbamate]	25 nM
COc1cnc2c(-c3nc4cc(F)c(O[C@@H]5CCC[C@@H]5OC(=O)Nc5cncc(C#N)c5)cc4s3)cc(C#N)cc2n1 (racemic) [Example 45, rac-cis-2-((2-(7-cyano-2-methoxyquinoxalin-5-yl)-5-fluorobenzo[d]thiazol-6-yl)oxy)cyclopentyl (5-cyanopyridin-3-yl)carbamate]	2.2 nM
COc1cnc2c(-c3nc4cc(F)c(O[C@@H]5CCC[C@@H]5OC(=O)Nc5cnc(C)nc5)cc4s3)cc(C#N)cc2n1 (racemic) [Example 46, rac-cis-2-((2-(7-cyano-2-methoxyquinoxalin-5-yl)-5-fluorobenzo[d]thiazol-6-yl)oxy)cyclopentyl (2-methylpyrimidin-5-yl)carbamate]	2 nM
COc1ccc(NC(=O)O[C@@H]2CCCC[C@H]2Oc2cc3sc(-c4cc(C)cc5nc(OC)cnc45)nc3cc2F)cn1 (racemic) [Example 53, rac-trans-2-((5-fluoro-2-(2-methoxy-7-methylquinoxalin-5-yl)benzo[d]thiazol-6-yl)oxy)cyclohexyl (6-methoxypyridin-3-yl)carbamate]	94 nM
COc1cnc2c(-c3nc4cc(F)c(O[C@@H]5CCCC[C@H]5OC(=O)Nc5cnc(C)nc5)cc4s3)cc(C)cc2n1 (racemic) [Example 54, rac-trans-2-((5-fluoro-2-(2-methoxy-7-methylquinoxalin-5-yl)benzo[d]thiazol-6-yl)oxy)cyclohexyl (2-methylpyrimidin-5-yl)carbamate]	13 nM
COc1cnc2c(-c3nc4cc(F)c(O[C@@H]5CCCC[C@@H]5OC(=O)Nc5cccnc5)cc4s3)cc(C)cc2n1 (racemic) [Example 55, rac-cis-2-((5-fluoro-2-(2-methoxy-7-methylquinoxalin-5-yl)benzo[d]thiazol-6-yl)oxy) cyclohexyl pyridin-3-ylcarbamate]	1.4 nM
COc1cnc2c(-c3nc4cc(F)c(O[C@@H]5CCCC[C@@H]5OC(=O)Nc5ccncc5)cc4s3)cc(C)cc2n1 (racemic) [Example 56, rac-cis-2-((5-fluoro-2-(2-methoxy-7-methylquinoxalin-5-yl)benzo[d]thiazol-6-yl)oxy) cyclohexyl pyridin-4-ylcarbamate]	1.8 nM
COc1ccc(NC(=O)O[C@H]2CCCC[C@H]2Oc2cc3sc(-c4cc(C)cc5nc(OC)cnc45)nc3cc2F)cn1 (racemic) [Example 57, rac-cis-2-((5-fluoro-2-(2-methoxy-7-methylquinoxalin-5-yl)benzo[d]thiazol-6-yl)oxy) cyclohexyl (6-methoxypyridin-3-yl)carbamate]	6.1 nM
COc1cnc2c(-c3nc4cc(F)c(O[C@@H]5CC[C@@H]5OC(=O)Nc5cnc(C)nc5)cc4s3)cc(C)cc2n1 (racemic) [Example 61, rac-cis-2-((5-fluoro-2-(2-methoxy-7-methylquinoxalin-5-yl)benzo[d]thiazol-6-yl)oxy) cyclobutyl (2-methylpyrimidin-5-yl)carbamate]	1.3 nM
COc1ccc(NC(=O)O[C@H]2CC[C@H]2Oc2cc3sc(-c4cc(C)cc5nc(OC)cnc45)nc3cc2F)cn1 (racemic) [Example 66]	0.79 nM
COc1cnc2c(-c3nc4cc(F)c(O[C@@H]5CC[C@@H]5OC(=O)Nc5cnc(OCCO)nc5)cc4s3)cc(C)cc2n1 (racemic) [Example 71]	1.6 nM
COc1cnc2c(-c3nc4cc(F)c(O[C@@H]5CC[C@@H]5OC(=O)Nc5cnc(OCCO)nc5)cc4s3)cc(Cl)cc2c1 (racemic) [Example 79]	0.9 nM
COc1cnc2c(-c3nc4cc(F)c(O[C@@H]5CC[C@@H]5OC(=O)Nc5cnc(C)nc5)cc4s3)cc(Cl)cc2c1 (racemic) [Example 82]	1.1 nM
COc1cnc2c(-c3nc4cc(F)c(O[C@@H]5CC(C)(C)C[C@@H]5OC(=O)Nc5cnc(C)nc5)cc4s3)cc(C)cc2n1 (racemic) [Example 83]	6.8 nM
COc1cnc2c(-c3nc4cc(F)c(O[C@@H]5COC[C@@H]5OC(=O)Nc5cnc(C)nc5)cc4s3)cc(C)cc2n1 (racemic) [Example 86, rac-cis-4-((5-fluoro-2-(2-methoxy-7-methylquinoxalin-5-yl)benzo[d]thiazol-6-yl)oxy) tetrahydrofuran-3-yl (2-methylpyrimidin-5-yl)carbamate]	2.7 nM
COc1ccc(NC(=O)O[C@H]2COC[C@H]2Oc2cc3sc(-c4cc(C)cc5nc(OC)cnc45)nc3cc2F)cn1 (racemic) [Example 87, rac-cis-4-((5-fluoro-2-(2-methoxy-7-methylquinoxalin-5-yl)benzo[d]thiazol-6-yl)oxy) tetrahydrofuran-3-yl (6-methoxypyridin-3-yl)carbamate]	6.2 nM
COc1ccc(NC(=O)O[C@H]2CCOC[C@H]2Oc2cc3sc(-c4cc(C)cc5nc(OC)cnc45)nc3cc2F)cn1 (racemic) [Example 88, rac-cis-3-((5-fluoro-2-(2-methoxy-7-methylquinoxalin-5-yl)benzoldithiazol-6-yl)oxy)tetrahydro-2H-pyran-4-yl (6-methoxypyridin-3-yl)carbamate]	21 nM
